Assay [1] addresses Mitogen-activated protein kinase 14 (Homo sapiens, UniProt Q16539). The class given is functional.
The target in another assay is LIM domain kinase 1 (Homo sapiens, UniProt P53667). As to the kind of experiment: Navigating the Kinome. Panel member name: LIMK1. The class given is functional.
A short description of assay [2]: alpha-synuclein stem-loop luciferase translation blockers – H4 neuroglioma cells, luminescence, confirmation (AID 1988). The format is functional, cell-based.
Assay [3] in a line: off-target signal loss in HeLa-CEM21 co-culture – HeLa F-luc CTL cells, cherry-picked, counter-screen for HIV-1 Env fusion inhibitor project, dose response (AID 652040).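 Further: potency for signal decrease marking cytotoxic or nonspecific inhibition.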 The class given is functional, cell-based.
The target of assay [4] is T1, Rac GTPase-activating protein 1 (Homo sapiens, UniProt Q9H0H5).
T1 sequence (Q9H0H5 whole entry): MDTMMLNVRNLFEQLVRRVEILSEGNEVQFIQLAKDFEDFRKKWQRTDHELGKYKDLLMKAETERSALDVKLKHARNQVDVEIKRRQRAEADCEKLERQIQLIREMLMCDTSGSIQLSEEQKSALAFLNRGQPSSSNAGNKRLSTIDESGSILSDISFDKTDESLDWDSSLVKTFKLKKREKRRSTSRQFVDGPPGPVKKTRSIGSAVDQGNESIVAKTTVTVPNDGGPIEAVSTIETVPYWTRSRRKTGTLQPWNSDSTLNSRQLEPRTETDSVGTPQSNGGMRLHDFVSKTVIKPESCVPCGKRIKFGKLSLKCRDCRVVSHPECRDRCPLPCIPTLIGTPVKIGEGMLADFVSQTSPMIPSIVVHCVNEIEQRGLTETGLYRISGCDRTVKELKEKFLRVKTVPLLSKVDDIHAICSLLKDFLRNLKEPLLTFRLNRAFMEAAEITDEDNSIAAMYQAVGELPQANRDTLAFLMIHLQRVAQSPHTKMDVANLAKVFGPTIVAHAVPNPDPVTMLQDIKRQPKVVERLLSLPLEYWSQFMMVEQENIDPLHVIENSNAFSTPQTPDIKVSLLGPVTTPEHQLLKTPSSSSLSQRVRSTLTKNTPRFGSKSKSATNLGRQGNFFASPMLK
As to the kind of experiment: blockers of MgcRacGAP-driven Rac1 GTP hydrolysis – biochemical, ADP Hunter fluorescence, primary and confirmatory, confirmation (AID 624330). The class given is functional.

Assay [5] has as its target Tyrosine-protein kinase SYK (Homo sapiens, UniProt P43405). The format is functional.
The target of another assay is Activin receptor type-1 (Homo sapiens, UniProt Q04771). As to the kind of experiment: Navigating the Kinome. Panel member name: ACVR1. The format is functional.
Assay [6] addresses Platelet-derived growth factor receptor alpha (Homo sapiens, UniProt P16234). As to the kind of experiment: Navigating the Kinome. Panel member name: PDGFRA. The class given is functional.
Assay [7] has as its target Homeodomain-interacting protein kinase 2 (Homo sapiens, UniProt Q9H2X6). The format is functional.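 Further: measured within a kinome-wide kinase profiling panel, HIPK2 being one panel member.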
The subject of the next assay is HEK293. As to the kind of experiment: membrane integrity loss in HEK cells – cell-based, fluorescence, cytotoxicity control for IDE activator project, dose response (AID 588440).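 Further: cytotoxicity by LDH release measuring loss of membrane integrity.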 The class given is functional. The following applies: Homo sapiens.
Assay [8] concerns the target T2, Ubiquitin-conjugating enzyme E2 N (Homo sapiens, UniProt P61088).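 Further: Dose-response confirmation in a TR-FRET assay detecting UBC13-driven polyubiquitin chain formation, inhibition measured.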
T2 sequence (P61088 whole entry): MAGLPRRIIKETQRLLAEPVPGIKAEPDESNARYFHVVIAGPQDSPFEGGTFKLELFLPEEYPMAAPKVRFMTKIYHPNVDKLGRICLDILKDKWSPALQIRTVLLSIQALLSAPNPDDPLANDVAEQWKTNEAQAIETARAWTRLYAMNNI
The class given is functional.

In another assay the test system is BJ. As to the kind of experiment: cells. The class given is functional, cell-based. The following applies: Homo sapiens.
In assay [9] the target is T3, Replicative DNA helicase DnaB (Mycobacterium tuberculosis, UniProt P9WMR3).
T3 sequence (P9WMR3 whole entry): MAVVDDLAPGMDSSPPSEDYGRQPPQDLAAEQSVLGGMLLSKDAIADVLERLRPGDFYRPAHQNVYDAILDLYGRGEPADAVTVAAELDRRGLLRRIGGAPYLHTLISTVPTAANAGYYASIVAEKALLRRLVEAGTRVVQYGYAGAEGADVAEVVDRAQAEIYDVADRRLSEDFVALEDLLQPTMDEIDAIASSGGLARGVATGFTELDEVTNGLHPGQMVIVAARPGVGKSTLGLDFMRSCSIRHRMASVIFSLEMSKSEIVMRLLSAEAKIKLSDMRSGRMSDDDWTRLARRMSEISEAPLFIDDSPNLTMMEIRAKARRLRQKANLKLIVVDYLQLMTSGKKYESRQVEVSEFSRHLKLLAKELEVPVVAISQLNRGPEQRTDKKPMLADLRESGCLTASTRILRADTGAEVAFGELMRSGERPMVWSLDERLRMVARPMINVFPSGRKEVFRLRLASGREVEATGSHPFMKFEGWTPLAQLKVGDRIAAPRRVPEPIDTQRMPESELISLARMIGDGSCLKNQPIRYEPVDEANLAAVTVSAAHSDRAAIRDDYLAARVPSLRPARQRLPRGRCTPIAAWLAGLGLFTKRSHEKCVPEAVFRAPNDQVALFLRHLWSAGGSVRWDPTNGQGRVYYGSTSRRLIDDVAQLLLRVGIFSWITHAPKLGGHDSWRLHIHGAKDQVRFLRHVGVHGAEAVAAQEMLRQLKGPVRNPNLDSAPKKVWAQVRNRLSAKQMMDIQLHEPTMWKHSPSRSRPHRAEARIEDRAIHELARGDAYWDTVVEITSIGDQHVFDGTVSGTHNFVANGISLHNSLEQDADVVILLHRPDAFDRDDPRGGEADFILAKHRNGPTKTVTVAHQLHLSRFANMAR
As to the kind of experiment: DnaB intein splicing inhibitors, dose response, biochemical, cell-free fluorescence (AID 449749). The class given is functional.

The source made the active and inactive calls.

A word on the Ki: it is a measure of affinity in units of concentration, obtained from inhibition or displacement. The term EC50 denotes the concentration needed to bring the measured effect to its halfway point. The term AC50 denotes the concentration at which the activity in the assay is half-maximal. As usually defined, the IC50 is the concentration that gives 50% inhibition.

LIM domain kinase 1, sequence (P53667 whole entry, the tested form may be a part): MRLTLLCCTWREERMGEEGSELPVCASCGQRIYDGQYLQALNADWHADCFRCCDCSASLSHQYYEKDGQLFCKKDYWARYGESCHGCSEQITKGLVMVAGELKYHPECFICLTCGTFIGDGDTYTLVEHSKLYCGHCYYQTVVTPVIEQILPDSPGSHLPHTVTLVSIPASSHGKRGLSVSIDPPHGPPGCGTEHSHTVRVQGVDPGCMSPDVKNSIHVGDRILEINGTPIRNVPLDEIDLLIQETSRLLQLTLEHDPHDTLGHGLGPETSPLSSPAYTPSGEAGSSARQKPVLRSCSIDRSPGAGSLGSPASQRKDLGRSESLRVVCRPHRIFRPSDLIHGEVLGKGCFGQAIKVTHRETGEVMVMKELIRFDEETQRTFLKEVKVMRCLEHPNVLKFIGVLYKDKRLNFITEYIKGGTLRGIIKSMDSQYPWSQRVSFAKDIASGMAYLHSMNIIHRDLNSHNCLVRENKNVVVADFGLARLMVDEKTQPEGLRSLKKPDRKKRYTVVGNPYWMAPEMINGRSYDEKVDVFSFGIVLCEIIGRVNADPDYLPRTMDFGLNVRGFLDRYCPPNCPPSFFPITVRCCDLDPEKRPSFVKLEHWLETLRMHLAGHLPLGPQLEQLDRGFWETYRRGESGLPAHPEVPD
Homeodomain-interacting protein kinase 2, sequence (Q9H2X6 whole entry): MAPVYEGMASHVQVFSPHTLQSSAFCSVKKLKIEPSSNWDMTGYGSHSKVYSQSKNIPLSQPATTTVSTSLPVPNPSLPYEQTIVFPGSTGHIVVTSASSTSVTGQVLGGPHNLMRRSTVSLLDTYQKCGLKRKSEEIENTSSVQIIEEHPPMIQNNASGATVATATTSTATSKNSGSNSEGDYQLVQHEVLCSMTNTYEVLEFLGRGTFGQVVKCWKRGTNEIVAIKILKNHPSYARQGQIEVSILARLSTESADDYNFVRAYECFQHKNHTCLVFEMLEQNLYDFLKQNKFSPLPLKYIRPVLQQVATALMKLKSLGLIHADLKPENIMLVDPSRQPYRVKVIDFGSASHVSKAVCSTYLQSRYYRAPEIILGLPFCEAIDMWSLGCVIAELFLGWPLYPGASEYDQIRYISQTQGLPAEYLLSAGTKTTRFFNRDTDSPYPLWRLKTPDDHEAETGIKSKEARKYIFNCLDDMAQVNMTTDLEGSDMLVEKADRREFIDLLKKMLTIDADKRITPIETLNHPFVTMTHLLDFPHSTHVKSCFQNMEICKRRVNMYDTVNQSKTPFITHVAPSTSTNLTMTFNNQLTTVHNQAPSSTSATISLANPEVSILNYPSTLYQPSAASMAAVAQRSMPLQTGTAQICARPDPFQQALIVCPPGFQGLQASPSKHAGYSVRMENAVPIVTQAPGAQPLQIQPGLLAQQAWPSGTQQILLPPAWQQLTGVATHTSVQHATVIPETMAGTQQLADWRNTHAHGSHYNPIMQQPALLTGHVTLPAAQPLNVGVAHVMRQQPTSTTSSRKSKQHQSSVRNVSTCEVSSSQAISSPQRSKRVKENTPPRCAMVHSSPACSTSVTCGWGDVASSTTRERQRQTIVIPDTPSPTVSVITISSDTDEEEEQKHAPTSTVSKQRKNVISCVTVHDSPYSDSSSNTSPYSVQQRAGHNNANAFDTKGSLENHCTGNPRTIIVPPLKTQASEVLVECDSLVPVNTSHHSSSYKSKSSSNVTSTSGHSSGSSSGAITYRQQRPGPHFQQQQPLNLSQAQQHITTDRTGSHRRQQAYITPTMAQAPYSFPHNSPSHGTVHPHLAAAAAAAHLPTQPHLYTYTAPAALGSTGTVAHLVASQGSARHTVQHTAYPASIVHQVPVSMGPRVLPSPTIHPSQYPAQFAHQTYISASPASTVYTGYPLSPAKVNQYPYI
Platelet-derived growth factor receptor alpha, sequence (P16234 whole entry): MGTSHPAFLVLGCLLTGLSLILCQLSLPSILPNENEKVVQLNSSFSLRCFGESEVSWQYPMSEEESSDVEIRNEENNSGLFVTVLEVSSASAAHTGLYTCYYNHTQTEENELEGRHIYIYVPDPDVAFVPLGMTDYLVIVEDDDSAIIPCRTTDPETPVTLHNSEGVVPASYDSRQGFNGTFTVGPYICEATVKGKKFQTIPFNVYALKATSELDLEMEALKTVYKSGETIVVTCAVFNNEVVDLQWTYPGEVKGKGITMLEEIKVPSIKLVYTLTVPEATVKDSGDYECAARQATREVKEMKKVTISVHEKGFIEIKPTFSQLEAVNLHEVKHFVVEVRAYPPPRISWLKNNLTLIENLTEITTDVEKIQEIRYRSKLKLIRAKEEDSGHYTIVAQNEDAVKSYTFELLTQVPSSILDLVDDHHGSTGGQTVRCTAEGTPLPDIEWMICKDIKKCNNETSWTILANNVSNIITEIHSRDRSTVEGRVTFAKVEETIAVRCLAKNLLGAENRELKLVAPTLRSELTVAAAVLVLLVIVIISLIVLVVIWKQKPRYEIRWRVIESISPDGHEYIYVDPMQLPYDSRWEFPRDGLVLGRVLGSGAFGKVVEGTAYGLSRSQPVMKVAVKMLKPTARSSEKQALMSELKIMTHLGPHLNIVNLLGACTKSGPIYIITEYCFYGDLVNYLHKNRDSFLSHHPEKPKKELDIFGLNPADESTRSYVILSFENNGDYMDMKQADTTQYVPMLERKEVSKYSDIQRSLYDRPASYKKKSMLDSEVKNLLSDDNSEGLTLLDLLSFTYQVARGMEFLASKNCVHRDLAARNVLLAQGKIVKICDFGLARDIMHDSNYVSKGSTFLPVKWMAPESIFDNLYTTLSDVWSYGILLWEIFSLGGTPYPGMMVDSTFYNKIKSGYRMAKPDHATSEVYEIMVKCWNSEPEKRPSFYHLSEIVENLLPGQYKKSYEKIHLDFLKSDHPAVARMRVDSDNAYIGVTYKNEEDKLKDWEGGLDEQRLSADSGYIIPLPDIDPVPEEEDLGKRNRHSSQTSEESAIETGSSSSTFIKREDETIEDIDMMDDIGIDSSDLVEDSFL
Activin receptor type-1, sequence (Q04771 whole entry): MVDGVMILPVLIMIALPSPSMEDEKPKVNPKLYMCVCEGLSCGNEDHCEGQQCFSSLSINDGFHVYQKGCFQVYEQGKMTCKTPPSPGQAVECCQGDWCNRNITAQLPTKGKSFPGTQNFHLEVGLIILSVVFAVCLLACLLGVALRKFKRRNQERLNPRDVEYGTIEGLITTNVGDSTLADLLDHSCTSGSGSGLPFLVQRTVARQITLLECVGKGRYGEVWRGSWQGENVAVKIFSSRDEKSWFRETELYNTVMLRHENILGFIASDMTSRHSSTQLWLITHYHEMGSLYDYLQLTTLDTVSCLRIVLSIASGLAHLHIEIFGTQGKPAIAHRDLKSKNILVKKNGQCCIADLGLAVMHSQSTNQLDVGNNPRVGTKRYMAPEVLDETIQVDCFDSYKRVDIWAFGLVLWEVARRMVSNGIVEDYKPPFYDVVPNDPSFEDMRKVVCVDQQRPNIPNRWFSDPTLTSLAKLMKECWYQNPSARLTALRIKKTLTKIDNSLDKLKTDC
Mitogen-activated protein kinase 14, sequence (Q16539 whole entry, the tested form may be a part): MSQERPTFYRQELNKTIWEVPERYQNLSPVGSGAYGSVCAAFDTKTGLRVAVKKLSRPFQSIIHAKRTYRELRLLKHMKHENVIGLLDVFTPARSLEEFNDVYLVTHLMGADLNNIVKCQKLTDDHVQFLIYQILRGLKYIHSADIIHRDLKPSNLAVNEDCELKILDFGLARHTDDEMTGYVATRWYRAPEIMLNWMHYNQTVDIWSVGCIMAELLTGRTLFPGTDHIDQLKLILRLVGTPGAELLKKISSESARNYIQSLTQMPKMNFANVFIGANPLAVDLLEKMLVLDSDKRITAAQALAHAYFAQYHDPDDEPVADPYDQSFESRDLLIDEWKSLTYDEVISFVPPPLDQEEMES

For the compound `Nc1c(-c2ccc(NC(=O)Nc3cccc(C(F)(F)F)c3)cc2)cnc2c(-c3ccc4c(c3)OCO4)cnn12`, the Ki was > 3.98 µM (inactive) in assay [1] and > 3.16 µM (inactive) at LIM domain kinase 1.

Regarding `CCN1C(=Cc2sc3ccccc3[n+]2C)C=Cc2cccc(C)c21`, the half-maximal effective concentration (EC50) in the assay “cells” is < 0.004 µM (active); in assay [2] it was < 0.1 µM (active). Moreover, the AC50 in assay [3] was 9.01 µM (active). Moreover, the IC50 in [4] was 55.9 µM (active).

As to `O=C(Nc1cc(-c2c[nH]c3ncccc23)cc(Cl)n1)c1ccccc1`, the Ki in assay [5] is > 1.58 µM (inactive); on Activin receptor type-1 it was > 3.98 µM (inactive); in assay [6], > 2.51 µM (inactive); in assay [7] it was > 3.98 µM (inactive).

As to `CNC[C@H](Cc1ccccc1)NC[C@@H](Cc1cccc2ccccc12)NCCc1ccc(C)cc1`, the IC50 was 9.04 µM (active) with HEK293 and 14.9 µM (active) in [8].

For the compound `O=C(N/N=C/c1c(O)ccc2ccccc12)c1[nH]ncc1Br`, the EC50 with BJ was 7.88 µM (active).

With `O=C(Cc1ccccc1Cl)NC1(O)C(=O)c2ccccc2C1=O`, the AC50 in assay [9] is 7.96 µM (active).
